The values that follow come from patent US4330542A, “N(Sulfonyl)anilines for treating angina pectoris” (Sanofi, priority 1979, dated 1982).

Series [1] concerns α-system. Nature of the series: Inhibitory effect on the α-system: reduction of epinephrine-increased blood-pressure in the atropinized dog. In kind it is in vivo. The settings on record: anaesthetized atropinized dog, 10 mg/kg intravenous. The procedure:
(§1) A dose of epinephrine, sufficient to produce a stable increase in blood-pressure was administered to a dog anaesthetized with sodium pentobarbital which had previously received an intravenous injection of 1 mg/kg of atropine sulphate. The operation was repeated several times and the blood-pressure obtained was noted. When the latter had returned to its normal level, the animal was given an intravenous dose of 10 mg/kg of the compound to be tested followed by the same dose as above of epinephrine.

Another series concerns β-system. Nature of the series: Antiadrenergic effect on the β-system: reduction of isoprenaline-increased heart-rate in the dog. The settings on record: anaesthetized atropinized dog, same method as epinephrine test (10 mg/kg intravenous). In kind it is in vivo. The procedure:
as §1
The antiadrenergic effects of the compounds of the invention on the β-system were also studied, by determining the degree to which they reduced isoprenaline-increased heart-rate. The same method as above was used.

A short description of series [2]: Heart-rate in anaesthetized atropinized dogs after intravenous injection. The following applies: anaesthetized atropinized dog, 10 mg/kg intravenous. In kind it is in vivo. The procedure:
(§2) The pharmacological investigation was carried out on anaesthetized dogs (30 mg/kg I.V. of sodium pentobarbital) having previously received an intravenous dose of 1 mg/kg of atropine sulphate.
(§3) The substance to be tested was given by an intravenous injection lasting two minutes after which the behaviour of both heart-rate and blood-pressure was observed over a certain period of time. An investigation was then carried out to detect any antiadrenergic properties. The compound listed hereunder were tested, in most cases in the form of pharmaceutically acceptable acid addition salts: […]

Series [3] can be described thus: Acute toxicity in the rat, intravenous route. The settings on record: in vivo. The procedure: Acute toxicity tests were also carried out on the rat, by intravenous route.
The nature of series [4]: Blood-pressure in anaesthetized atropinized dogs after intravenous injection. The format is in vivo. The following applies: anaesthetized atropinized dog, 10 mg/kg intravenous. The procedure:
as §2, §3

Series [5] has as its system α-system. Nature of the series: Inhibitory effect on the α-system: reduction of epinephrine-increased blood-pressure in the atropinized dog. In kind it is in vivo. The settings on record: anaesthetized atropinized dog, dose as low as 2 mg/kg.

Turning to `C=CCOc1ccccc1N(CC(O)CN1CCN(Cc2ccccc2)CC1)S(=O)(=O)c1ccc(C)cc1` (centres unmarked) [Compound 40, 2-Allyloxy-N-[3-(4-benzyl-1-piperazinyl)-2-hydroxy-propyl]-N-(4-methylbenzene-sulphonyl)-aniline], the “reduction of epinephrine-induced arterial hypertension” value in the series on α-system [1] is “reduced, at least partially, the epinephrine-induced arterial hypertension”. Moreover, the “reduction in isoprenaline-increased heart-rate” value in the series on β-system is recorded as “marked reduction in the isoprenaline-increased heart-rate”. Further, in series [2], the reduction in heart-rate entry was “marked and long-lasting reduction in heart-rate”. Moreover, in series [3], the LD50 (as a rule, the dose at which mortality reaches 50%) worked out at 12 mg/kg. Besides, the reduction in blood-pressure entry in series [4] is “marked and constant reduction in blood-pressure”.

For “N-[2-hydroxy-3-(4-(2-methoxy-phenyl)-1-piperazinyl)-propyl]-N-methylsulphonyl-4-amino-phenylacetamide [Compound 102]”, the “reduction of epinephrine-induced arterial hypertension” value in the series on α-system [1] is “reduced, at least partially, the epinephrine-induced arterial hypertension”. The reduction in heart-rate result in series [2] was “marked and long-lasting reduction in heart-rate”. In the series with α-system [5], the “reduction of epinephrine-induced arterial hypertension at low dose” value is “Long-lasting and total reduction”. Moreover, in series [4], the reduction in blood-pressure entry was “marked and constant reduction in blood-pressure”.

For `COc1ccccc1N1CCN(CC(O)CN(c2ccc(NC(C)=O)cc2)S(=O)(=O)c2ccc(C)cc2)CC1` (centres unmarked) [Compound 94, 4-Acetylamino-N-[2-hydroxy-3-(4-(2-methoxy-phenyl)-1-piperazinyl)-propyl]-N-(4-methyl-benzenesulphonyl)-aniline], the “reduction of epinephrine-induced arterial hypertension” value with α-system [1] was “reduced, at least partially, the epinephrine-induced arterial hypertension”. Also, in series [2], the reduction in heart-rate entry was “marked and long-lasting reduction in heart-rate”. Also, the reduction in blood-pressure entry in series [4] was “marked and constant reduction in blood-pressure”.

As to “N-[3-(4-(4-chlorophenyl)-1-piperazinyl)-2-hydroxy-propyl]-N-methylsulphonyl-4-amino-phenylacetamide [Compound 99]”, the “reduction of epinephrine-induced arterial hypertension” value in the series on α-system [1] is reported as “reduced, at least partially, the epinephrine-induced arterial hypertension”.

`CC(=O)Nc1ccc(N(CC(O)CN2CCN(c3ccccc3Cl)CC2)S(=O)(=O)c2ccc(C)cc2)cc1` (centres unmarked) [Compound 95, 4-Acetylamino-N-[3-(4-(2-chloro-phenyl)-1-piperazinyl)-2-hydroxy-propyl]-N-(4-methyl-benzenesulphonyl)-aniline]: the reduction in blood-pressure entry in series [4] is “marked and constant reduction in blood-pressure”.

In the case of `CS(=O)(=O)N(CC(O)CN1CCN(c2ccccc2Cl)CC1)c1ccc(Cl)c(Cl)c1` (centres unmarked) [Compound 75, 3,4-Dichloro-N-[3-(4-(2-chloro-phenyl)-1-piperazinyl)-2-hydroxy-propyl]-N-methylsulphonyl-aniline], the “reduction of epinephrine-induced arterial hypertension” value in the series with α-system [1] is “reduced, at least partially, the epinephrine-induced arterial hypertension”. Moreover, the reduction in blood-pressure entry in series [4] was “marked and constant reduction in blood-pressure”.

`COc1ccccc1N1CCN(CC(O)CN(c2ccc(CC(N)=O)cc2)S(=O)(=O)c2ccc(C)cc2)CC1` (centres unmarked) [Compound 105, N-[2-hydroxy-3-(4-(2-methoxy-phenyl)-1-piperazino)-propyl]-N-(4-methyl-benzenesulphonyl)-4-amino-phenylacetamide]: the “reduction of epinephrine-induced arterial hypertension” value with α-system [1] is reported as “reduced, at least partially, the epinephrine-induced arterial hypertension”. Moreover, in series [4], the reduction in blood-pressure result is “marked and constant reduction in blood-pressure”.

On to `C=CCOc1ccccc1N(CC(O)CN1CCN(c2ccc(F)cc2)CC1)S(C)(=O)=O` (centres unmarked) [Compound 23, 2-Allyloxy-N-[3-(4-(4-fluoro-phenyl)-1-piperazinyl)-2-hydroxy-propyl]-N-methylsulphonyl-aniline], for which the “reduction of epinephrine-induced arterial hypertension” value in the series on α-system [1] is “reduced, at least partially, the epinephrine-induced arterial hypertension”. Moreover, the reduction in blood-pressure entry in series [4] was “marked and constant reduction in blood-pressure”.

For `C=CCOc1ccccc1N(CC(O)CN1CCN(c2ccccn2)CC1)S(=O)(=O)c1ccc(OC)cc1` (centres unmarked) [Compound 53, 2-Allyloxy-N-[2-hydroxy-3-(4-(2-pyridyl)-1-piperazinyl)-propyl]-N-(4-methoxy-benzenesulphonyl)-aniline], the “reduction of epinephrine-induced arterial hypertension” value with α-system [1] is on record as “reduced, at least partially, the epinephrine-induced arterial hypertension”. Besides, the reduction in blood-pressure result in series [4] is “marked and constant reduction in blood-pressure”.

`COc1ccccc1N1CCN(CC(O)CN(c2ccc(Cl)c(Cl)c2)S(C)(=O)=O)CC1` (centres unmarked) [Compound 77, 3,4-Dichloro-N-[2-hydroxy-3-(4-(2-methoxy-phenyl)-1-piperazinyl)-propyl]-N-methylsulphonyl-aniline]: the “reduction of epinephrine-induced arterial hypertension” value in the series with α-system [1] is on record as “reduced, at least partially, the epinephrine-induced arterial hypertension”. In addition, in series [2], the reduction in heart-rate entry is “marked and long-lasting reduction in heart-rate”. The reduction in blood-pressure result in series [4] was “marked and constant reduction in blood-pressure”.

On to `CC(=O)Nc1ccc(N(CC(O)CN2CCN(c3ccccc3)CC2)S(=O)(=O)c2ccc(C)cc2)cc1` (centres unmarked) [Compound 91, 4-Acetylamino-N-[2-hydroxy-3-(4-phenyl-1-piperazinyl)-propyl]-N-(4-methyl-benzenesulphonyl)-aniline], for which the “reduction of epinephrine-induced arterial hypertension” value in the series with α-system [1] is given as “reduced, at least partially, the epinephrine-induced arterial hypertension”. Further, in series [2], the reduction in heart-rate entry was “marked and long-lasting reduction in heart-rate”. Besides, in series [4], the reduction in blood-pressure result is “marked and constant reduction in blood-pressure”.

For `C=CCOc1ccccc1N(CC(O)CNC(C)(C)C)S(=O)(=O)c1ccc(OC)cc1` (centres unmarked) [Compound 14, 2-Allyloxy-N-(3-tert-butylamino-2 hydroxy-propyl)-N-(4-methoxy-benzenesulphonyl)-aniline], the “reduction of epinephrine-induced arterial hypertension” value in the series on α-system [1] is recorded as “reduced, at least partially, the epinephrine-induced arterial hypertension”. The “reduction in isoprenaline-increased heart-rate” value in the series on β-system was “marked reduction in the isoprenaline-increased heart-rate”. The reduction in heart-rate entry in series [2] was “marked and long-lasting reduction in heart-rate”.

For `C=CCOc1ccccc1N(CC(O)CN1CCN(c2ccccc2OC)CC1)S(C)(=O)=O` (centres unmarked) [Compound 30, 2-Allyloxy-N-[2-hydroxy-3-(4-(2-methoxy-phenyl)-1-piperazinyl)-propyl]-N-methylsulphonyl-aniline], the “reduction of epinephrine-induced arterial hypertension” value with α-system [1] is “reduced, at least partially, the epinephrine-induced arterial hypertension”. Besides, in the series with β-system, the “reduction in isoprenaline-increased heart-rate” value is given as “marked reduction in the isoprenaline-increased heart-rate”. The “reduction of epinephrine-induced arterial hypertension at low dose” value in the series with α-system [5] was “Long-lasting and total reduction”. The reduction in blood-pressure result in series [4] was “marked and constant reduction in blood-pressure”.

Regarding `CC(=O)Nc1ccc(N(CC(O)CN2CCN(c3ccccc3)CC2)S(C)(=O)=O)cc1` (centres unmarked) [Compound 88, 4-Acetylamino-N-[2-hydroxy-3-(4-phenyl-1-piperazinyl)-propyl]-N-methylsulphonyl-aniline], the “reduction of epinephrine-induced arterial hypertension” value in the series with α-system [1] was “reduced, at least partially, the epinephrine-induced arterial hypertension”. The “reduction in isoprenaline-increased heart-rate” value with β-system is listed as “marked reduction in the isoprenaline-increased heart-rate”. Also, the reduction in blood-pressure result in series [4] is “marked and constant reduction in blood-pressure”.

Regarding `C=CCOc1ccccc1N(CC(O)CN1CCN(c2ccccc2F)CC1)S(=O)(=O)c1ccc(OC)cc1` (centres unmarked) [Compound 57, 2-Allyloxy-N-[2-hydroxy-3-(4-(2-fluoro-phenyl)-1-piperazinyl)-propyl]-N-(4-methoxy-benzenesulphonyl)-aniline], the “reduction of epinephrine-induced arterial hypertension” value in the series with α-system [1] is “reduced, at least partially, the epinephrine-induced arterial hypertension”. Also, the reduction in heart-rate entry in series [2] is “marked and long-lasting reduction in heart-rate”.

For `COc1ccccc1N1CCN(CC(O)CN(c2ccc(NC(C)=O)cc2)S(C)(=O)=O)CC1` (centres unmarked) [Compound 90, 4-Acetylamino-N-[2-hydroxy-3-(4-(2-methoxy-phenyl)1-piperazinyl)-2-hydroxy-propyl]-N-methyl-sulphonyl-aniline], the “reduction of epinephrine-induced arterial hypertension” value with α-system [1] is “reduced, at least partially, the epinephrine-induced arterial hypertension”. The reduction in blood-pressure entry in series [4] was “marked and constant reduction in blood-pressure”.

Consider `COc1ccc(S(=O)(=O)N(CC(O)CN2CCN(c3ccc(Cl)cc3)CC2)c2ccc(Cl)c(Cl)c2)cc1` (centres unmarked) [Compound 84, 3,4-Dichloro-N-[3-(4-(4-chloro-phenyl)-1-piperazinyl)-2-hydroxy-propyl]-N-(4-methoxy-benzenesulphonyl)-aniline], for which, in the series on α-system [1], the “reduction of epinephrine-induced arterial hypertension” value was “reduced, at least partially, the epinephrine-induced arterial hypertension”. The reduction in heart-rate result in series [2] was “marked and long-lasting reduction in heart-rate”.
